Reference: ChEMBL document CHEMBL1134774, “Design, synthesis, and structure-activity relationships of a series of 3-[2-(1-benzylpiperidin-4-yl)ethylamino]pyridazine derivatives as acetylcholinesterase inhibitors” (J Med Chem, 2001)

What was measured:
[1] = molecular target: Acetylcholinesterase (Electrophorus electricus, UniProt O42275)
Description: In vitro inhibition of electric eel acetylcholinesterase

[2] = molecular target: Acetylcholinesterase (Homo sapiens, UniProt P22303)
Description: In vitro inhibition of acetylcholinesterase from human erythrocytes

[3] = molecular target: Cholinesterase (Homo sapiens, UniProt P06276)
Description: Inhibition of butyrylcholinesterase from human serum

[4] = molecular target: T1, Choline O-acetyltransferase (Rattus norvegicus) (UniProt P32738); assay: IC50 (hBuChE/hAChE) ratio of the compound
T1 sequence (whole entry): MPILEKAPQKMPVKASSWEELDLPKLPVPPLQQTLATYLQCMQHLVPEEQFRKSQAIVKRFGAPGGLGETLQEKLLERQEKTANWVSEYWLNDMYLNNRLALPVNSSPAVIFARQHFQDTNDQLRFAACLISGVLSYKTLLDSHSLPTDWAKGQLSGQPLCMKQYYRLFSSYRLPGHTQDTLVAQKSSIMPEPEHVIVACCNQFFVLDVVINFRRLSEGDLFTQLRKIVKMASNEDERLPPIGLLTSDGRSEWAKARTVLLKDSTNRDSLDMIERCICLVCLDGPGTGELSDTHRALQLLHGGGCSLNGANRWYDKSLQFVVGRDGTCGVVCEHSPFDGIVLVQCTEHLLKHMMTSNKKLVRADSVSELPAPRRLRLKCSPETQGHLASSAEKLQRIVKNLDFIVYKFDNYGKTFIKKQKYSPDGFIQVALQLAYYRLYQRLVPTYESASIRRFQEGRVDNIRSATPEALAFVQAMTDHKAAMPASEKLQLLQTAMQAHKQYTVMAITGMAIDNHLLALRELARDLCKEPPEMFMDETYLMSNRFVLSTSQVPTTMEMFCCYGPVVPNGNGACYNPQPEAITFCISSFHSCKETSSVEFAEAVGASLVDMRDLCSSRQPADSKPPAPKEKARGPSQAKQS

Acetylcholinesterase (Electrophorus electricus, UniProt O42275), sequence (O42275 whole entry): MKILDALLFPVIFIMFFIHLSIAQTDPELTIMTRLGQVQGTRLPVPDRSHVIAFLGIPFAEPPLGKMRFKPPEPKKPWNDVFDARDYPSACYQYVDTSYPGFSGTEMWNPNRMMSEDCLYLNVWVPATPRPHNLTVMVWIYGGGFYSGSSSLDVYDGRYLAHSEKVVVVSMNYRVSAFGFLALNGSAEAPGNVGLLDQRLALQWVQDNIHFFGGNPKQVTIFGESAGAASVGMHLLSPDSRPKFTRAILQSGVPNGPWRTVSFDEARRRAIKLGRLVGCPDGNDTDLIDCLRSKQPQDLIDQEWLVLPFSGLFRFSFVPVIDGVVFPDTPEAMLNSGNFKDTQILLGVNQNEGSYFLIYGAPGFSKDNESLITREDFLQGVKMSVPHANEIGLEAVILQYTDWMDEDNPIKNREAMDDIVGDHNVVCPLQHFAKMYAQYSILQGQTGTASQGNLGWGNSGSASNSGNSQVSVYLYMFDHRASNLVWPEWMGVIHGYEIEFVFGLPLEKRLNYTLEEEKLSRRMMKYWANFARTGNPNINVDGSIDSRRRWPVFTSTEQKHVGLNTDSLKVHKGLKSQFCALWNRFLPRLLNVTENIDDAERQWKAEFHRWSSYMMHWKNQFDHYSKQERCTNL
Cholinesterase, sequence (P06276 whole entry): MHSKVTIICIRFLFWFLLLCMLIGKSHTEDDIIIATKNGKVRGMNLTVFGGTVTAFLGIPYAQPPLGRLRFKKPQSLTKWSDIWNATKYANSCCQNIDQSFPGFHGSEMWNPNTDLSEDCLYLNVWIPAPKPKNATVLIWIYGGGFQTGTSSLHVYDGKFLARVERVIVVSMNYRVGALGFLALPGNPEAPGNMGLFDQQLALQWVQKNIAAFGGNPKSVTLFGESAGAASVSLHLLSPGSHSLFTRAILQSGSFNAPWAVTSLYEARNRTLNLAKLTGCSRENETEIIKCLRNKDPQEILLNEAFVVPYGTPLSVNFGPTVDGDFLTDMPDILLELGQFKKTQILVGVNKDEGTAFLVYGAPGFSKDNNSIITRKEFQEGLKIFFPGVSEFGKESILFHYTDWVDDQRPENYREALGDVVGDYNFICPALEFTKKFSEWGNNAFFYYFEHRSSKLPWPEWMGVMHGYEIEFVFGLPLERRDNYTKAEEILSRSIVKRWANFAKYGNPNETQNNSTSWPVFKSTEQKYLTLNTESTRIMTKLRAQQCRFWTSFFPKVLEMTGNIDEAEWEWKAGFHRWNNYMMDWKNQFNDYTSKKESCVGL
Acetylcholinesterase (Homo sapiens, UniProt P22303), sequence (P22303 whole entry): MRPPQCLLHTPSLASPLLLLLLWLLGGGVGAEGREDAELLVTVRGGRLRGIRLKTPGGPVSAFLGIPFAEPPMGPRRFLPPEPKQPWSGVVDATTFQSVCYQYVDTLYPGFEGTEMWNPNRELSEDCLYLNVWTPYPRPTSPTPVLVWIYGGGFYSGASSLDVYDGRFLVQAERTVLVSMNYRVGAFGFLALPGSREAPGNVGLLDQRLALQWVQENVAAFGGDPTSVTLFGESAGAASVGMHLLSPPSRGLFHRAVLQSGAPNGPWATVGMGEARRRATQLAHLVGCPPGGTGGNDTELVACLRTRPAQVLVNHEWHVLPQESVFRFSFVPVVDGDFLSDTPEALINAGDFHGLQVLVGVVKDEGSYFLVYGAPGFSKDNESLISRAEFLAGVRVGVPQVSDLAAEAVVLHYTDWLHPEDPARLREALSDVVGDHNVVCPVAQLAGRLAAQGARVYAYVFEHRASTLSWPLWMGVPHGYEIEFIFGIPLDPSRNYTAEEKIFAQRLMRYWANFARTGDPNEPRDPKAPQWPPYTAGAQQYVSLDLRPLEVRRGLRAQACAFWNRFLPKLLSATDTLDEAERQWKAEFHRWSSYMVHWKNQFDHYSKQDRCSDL

Row | Structure (SMILES) | IC50 [1] | IC50 [2] | IC50 [3] | IC50 ratio [4]
1 | Fc1ccc(-c2ccc(NCCC3CCN(Cc4ccccc4)CC3)nn2)cc1 | 350 nM |  |  | 
2 | CC(=O)c1cccc(-c2ccc(NCCC3CCN(Cc4ccccc4)CC3)nn2)c1 | 54 nM |  |  | 
3 | c1ccc(CC2CCN(CCNc3ccc(-c4ccccc4)nn3)CC2)cc1 | 24000 nM |  |  | 
4 | CC(=O)Nc1cccc(-c2ccc(NCCC3CCN(Cc4ccccc4)CC3)nn2)c1 | 58 nM |  |  | 
5 | Cc1cc(-c2ccccc2)nnc1NCCC1CCN(Cc2ccccc2)CC1 | 320 nM |  |  | 
6 | CCc1cc(=NCCC2CCN(Cc3ccccc3)CC2)[nH]nc1-c1ccccc1 | 27 nM | 66 nM | 920 nM | 14
7 | c1ccc(CN2CCC(CCNc3cc4ccc5ccccc5c4nn3)CC2)cc1 | 22 nM | 190 nM | 270 nM | 
8 | O=C(CN1CCC(Cc2ccccc2)CC1)Nc1ccc(-c2ccccc2)nn1 | 18000 nM |  |  | 
9 | c1ccc(CN2CCC(CCN=c3cc4c(n[nH]3)-c3ccccc3C4)CC2)cc1 | 10 nM | 74 nM | 230 nM | 3.1
10 | c1ccc(CN2CCC(CCNc3cccnn3)CC2)cc1 | 240 nM |  |  | 
11 | c1ccc(CN2CCC(CCNc3cc4c(nn3)-c3ccccc3CCC4)CC2)cc1 | 22 nM | 120 nM | 510 nM | 
12 | c1ccc(CN2CCC(CCNc3ccc(-c4ccc5ccccc5c4)nn3)CC2)cc1 | 56 nM |  |  | 
13 | CN(C)c1ccc(-c2ccc(NCCC3CCN(Cc4ccccc4)CC3)nn2)cc1 | 210 nM |  |  | 
14 | c1ccc(CN2CCC(CCOc3ccc(-c4ccccc4)nn3)CC2)cc1 | 140000 nM | 710 nM | 1600 nM | 
15 | O=C(CN1CCN(Cc2ccccc2)CC1)Nc1ccc(-c2ccccc2)nn1 | 17000 nM |  |  | 
16 | Cc1cc(C)c(-c2ccc(NCCC3CCN(Cc4ccccc4)CC3)nn2)c(C)c1 | 3000 nM |  |  | 
17 | Clc1ccccc1-c1ccc(NCCC2CCN(Cc3ccccc3)CC2)nn1 | 80 nM |  |  | 
18 | Clc1ccc(NCCC2CCN(Cc3ccccc3)CC2)nn1 | 73 nM |  |  | 

Row | Structure (SMILES) | IC50 [1] | IC50 [2] | IC50 [3] | IC50 ratio [4]
19 | CCc1ccccc1-c1ccc(NCCC2CCN(Cc3ccccc3)CC2)nn1 | 87 nM |  |  | 
20 | COc1ccccc1-c1ccc(NCCC2CCN(Cc3ccccc3)CC2)nn1 | 110 nM |  |  | 
21 | Cc1cc(=NCCC2CCN(Cc3ccccc3)CC2)[nH]nc1-c1ccccc1 | 21 nM | 39 nM | 940 nM | 24
22 | N#Cc1ccc(-c2ccc(NCCC3CCN(Cc4ccccc4)CC3)nn2)cc1 | 100 nM |  |  | 
23 | CC(C)c1cc(-c2ccccc2)nnc1NCCC1CCN(Cc2ccccc2)CC1 | 430 nM |  |  | 
24 | Cc1ccccc1-c1ccc(NCCC2CCN(Cc3ccccc3)CC2)nn1 | 90 nM |  |  | 
25 | c1ccc(CN2CCC(CCNc3ccc(-c4cccnc4)nn3)CC2)cc1 | 57 nM |  |  | 
26 | FC(F)(F)c1cc(-c2ccc(NCCC3CCN(Cc4ccccc4)CC3)nn2)cc(C(F)(F)F)c1 | 56 nM |  |  | 
27 | O=C(CNc1ccc(-c2ccccc2)nn1)N1CCC(Cc2ccccc2)CC1 | 120000 nM |  |  | 
28 | c1ccc(CN2CCC(CCNc3ccc(-c4cccs4)nn3)CC2)cc1 | 97 nM |  |  | 
29 | COc1ccc(NCCC2CCN(Cc3ccccc3)CC2)nn1 | 220 nM |  |  | 
30 | O=C(CC1CCN(Cc2ccccc2)CC1)Nc1ccc(-c2ccccc2)nn1 | 4200 nM |  |  | 
31 | c1ccc(CN2CCC(CCNc3ccc(-c4ccccc4)nn3)CC2)cc1 | 120 nM |  |  | 5
32 | c1ccc(CN2CCC(CCSc3ccc(-c4ccccc4)nn3)CC2)cc1 | 63000 nM | 470 nM | 480 nM | 
33 | O=C(CNc1ccc(-c2ccccc2)nn1)N1CCN(Cc2ccccc2)CC1 | 15000 nM |  |  | 
34 | CCCc1cc(=NCCC2CCN(Cc3ccccc3)CC2)[nH]nc1-c1ccccc1 | 61 nM |  |  | 
35 | c1ccc(CN2CCC(CCN=c3[nH]nc(-c4ccccc4)c4ccccc34)CC2)cc1 | 440 nM |  |  | 
36 | c1ccc(CN2CCC(CCNc3cc4c(nn3)-c3ccccc3CC4)CC2)cc1 | 39 nM | 190 nM | 280 nM | 1.5
